This is an account of results in patent publication US8802734B2, “Method of treating or preventing pain” (Novaremed Limited, priority 2009, dated 2014).

The structures appear in SMILES notation.

Assay [1] concerns Balb/c mice. Kind of assay: Hot-Plate Test (antinociceptive effect), sub-chronic oral administration. It is filed as in vivo. As to conditions: po daily for 16 days, 0.1 and 5 mg/Kg, hot plate on days 1, 8 and 15. The text has this:
The objective of the study was to assess antinociceptive activity of tested items in the hot plate tests in mice, when administered sub-chronically. Measuring paw licking or jumping response time elapses following placement on heated surface (hot plate) was used to determine potential antinociceptive effect in mice.
A total of 42 Balb/c mice (12 weeks old) were utilized. The mice were approximately 25 g males at study initiation. The minimum and maximum weights of the group were within a range of ±10% of group mean weight.
Compounds 2 and 3 were tested and compared with Diclofenac® (Perigo). DMSO solutions were used. Six groups of mice (each having n=7 or n=8 mice) were tested, the last group receiving Diclofenac®.
All groups received the drugs daily po for 16 days. Hot plate experiments were performed on days; 1, 8 and 15.
The hot plate is maintained thermostatically at a temperature of 52° C. One hour before the administration of the drugs, mice are tested in the hot plate. At time 0 the mice are administered with the test compound and the response to the hot plate is measured again at different times: 60, 120, 180, 240, 300 and 360 min.
Results are expressed as: Delta from maximum response [baseline vs. maximum response]; Absolute measures over time; and Accumulated time.
In general terms: In hot-plate and tail-flick tests a longer latency is read as antinociception.

In assay [2] the test system is Balb/c mice. Briefly: Formalin test. It is filed as in vivo. The settings on record: i.p. 0.2, 1, 2.5 mg/kg, formalin 1% intraplantar 3 h or 4 h after the treatment, FIGS. 12a-12e. Here is the method: Formalin test. The method used was similar to that described by Hunscaar and Hole (1987) “The formalin test in mice: dissociation between inflammatory and non-inflammatory pain,” Pain 30, pp. 103-104.
Five animals are used in each group and two to three hours after oral administration of the conjugates, 40 μl or 20 μl (rats or mice, respectively) of a 1% formalin (in 0.9% saline) solution is injected subcutaneously into the dorsal surface hind paw. The formalin induced typical flinching behaviour of the injected paw which was counted. The animals were returned to a glass chamber and the total time spent by the animal licking or biting the injected paw was measured. Formalin induced pain behaviour is biphasic. The duration of paw licking was determined during the following two time periods: 0-5 min (first-neurogenic phase) and 20-30 min (second-inflammatory phase) after formalin injection.
Part a. Male mice (Balb/c mice, 27 weeks old, not naïve), were divided in 4 groups (5 mice per group) and treated (0 min, i.p.) with the following formulations, respectively: […]
Part b. Male mice (Balb/c mice, 27 weeks old, not naïve), were divided in 4 groups (5 mice in groups) and treated (0 min, i.p.) with the following formulations, respectively: […]

Regarding `CC(O)COCC(Cc1ccc(O)cc1)NC(=O)CCc1ccccc1` (stereo not drawn) [Compound 2], the “effectiveness as pain relievers (hot plate test)” value in the assay with Balb/c mice [1] is on record as “effective as pain relievers”. The “anti-inflammatory properties (formalin test)” value with Balb/c mice [2] was “confirm the anti-inflammatory properties”.

As for `O=C(CCc1ccccc1)NC(COCCO)Cc1ccc(O)cc1` (stereo not drawn) [Compound 3], the “effectiveness as pain relievers (hot plate test)” value in the assay with Balb/c mice [1] is listed as “effective as pain relievers”.
